# Laboratory results reported in patent US20240366644A1, “ANTI-INFLAMMATORY APPLICATION OF GINSENOSIDE RD” (priority 2022, published 2024).
# Key:
# [1] = test system: Chronic Obstructive Pulmonary Disease in Rats; assay: Lung pathomorphology of rats with chronic obstructive pulmonary disease; format: in vivo, SD rats; conditions: po, 2.5 mg/kg
# [2] = test system: Chronic Obstructive Pulmonary Disease in Rats; assay: Serum TNF-α and IL-8 in rats with chronic obstructive pulmonary disease (LPS + smoking); format: in vivo, SD rats; conditions: 2.5 mg/kg gavage
# Experimental: After adaptive feeding (20-25° C., a humidity of 50-60%) for 1 week, the rats were randomly divided into a blank group, a model group, a positive control group, a ginsenoside Rd high-dose group, and a ginsenoside Rd low-dose group, with ten rats in each group.
# Model group: on the Day 1 and Day 14, each rat was intraperitoneally injected with 10% chloral hydrate (300 mg/kg) for anesthesia; the head was fixed in a low position; the glottis was exposed; lipopolysaccharide was quickly injected into the trachea; and the rat was kept upright, and swung left and right for 10-20 s, such that the lipopolysaccharide was evenly distributed in the two lungs. On the Days 2-13, and 15-28, the lungs were smoked in a closed organic glass box for 30 min every day, with 15 cigarettes per day.
# Positive control group: the animal was anesthetized, and intratracheally injected with lipopolysaccharide, wherein smoking conditions and time were the same as those of the model group; and after tracheal injection of lipopolysaccharide for two weeks, the animal was administrated with Simvastatin by gavage (2.5 mg/kg), and killed after six weeks, and serum was collected.
# In accordance with the instructions, the levels of TNF-α and IL-8 in the serum were detected by enzyme-linked immunosorbent assay. The data was expressed as x±s, p<0.05, which meant that it was statistically significant.
# [3] = test system: xylene-induced swelling of mouse ears; assay: Xylene-induced swelling of mouse ears; format: in vivo, Kunming mice
# Experimental: […] KM mice, weighing 18-22 g, were randomly grouped, with ten mice in each group. The groups include a model group, a positive control group (Indomethacin, 10 mg/kg), a ginsenoside Rd low-dose group (5 mg/kg), and a ginsenoside Rd high-dose group (10 mg/kg). After 30 min of gavage administration of mice (the model group was administrated with the equal volume of 0.5% sodium carboxymethylcellulose by gavage), 0.03 ml of xylene was evenly applied to both sides of the right ear of each mouse in each group to cause inflammations on both sides, and the left ear of the mouse was not applied as a control. After 4 h, the mouse was killed by dislocation of cervical vertebra, the two ears of the mouse were cut off along the auricle, round ear slices of the same size (a diameter of 6 mm) were taken at the same position of the left and right ears and weighed respectively, a mass difference of the two ear slices was used as an ear swelling degree, and a swelling inhibition rate was calculated.
# [4] = test system: mice infected with COVID-19 Delta virus; assay: Lung histopathology of mice infected with COVID-19 Delta virus; format: in vivo, hACE2 transgenic C57BL/6 mice; conditions: number of mice with this degree (four per group); 5 mg/kg gavage once a day, five days
# [5] = test system: mice with acute lung injury; assay: Inflammatory factors (ELISA) in lung tissue and alveolar lavage fluid of mice with LPS acute lung injury; format: in vivo, Balb/c mice; conditions: 5 mg/kg intraperitoneal 1 h before LPS; 24 h after modeling
# Experimental: Balb/c male mice, weighing 20-22 g, were randomly divided into five groups according to body weights, with eight mice in each group: a blank control group (propylene glycol-0.5% carboxymethylcellulose sodium), a model group (LPS, 15 mg/kg), a ginsenoside Rd low-dose group (10 mg/kg), a ginsenoside Rd high-dose group (20 mg/kg), and a Dexamethasone group (5 mg/kg). Mice in each group were intraperitoneally injected; after 1 h of administration, except for the blank control group, the mice in each group were intratracheally instilled with 20 μg of LPS for modeling; and the blank control group was intratracheally instilled with an equal volume of PBS.
# After 1 h of administration, a mouse ALI model was established; each mouse was intraperitoneally injected with sodium pentobarbital at 30 mg/kg, anesthetized and fixed on an operating table dorsally; skin preparation was carried out on the neck; the skin was incised to expose the trachea; 20 μg of LPS was instilled into the trachea using a microglass syringe; and then the mouse was gently rotated head up on the operating table, such that the instilled liquid was evenly distributed in the mouse lungs, and the skin incision was sutured.
# After 24 h of modeling, anesthetized mice were intraperitoneally injected with sodium pentobarbital at 30 mg/kg; lung tissues of the mice were taken and rinsed repeatedly in pre-cooled normal saline; the lung tissues were blood-removed, wiped with filter paper, weighed, and added with normal saline according to a ratio of 1:9 (W:V=1 g:9 ml); a tissue homogenate was prepared with a homogenization machine under an ice water bath; and a supernatant of mouse lung tissue homogenate was taken.
# The mouse was anesthetized, and the trachea was separated; the whole lung was lavaged with 0.5 ml of pre-cooled normal saline, stayed for 1 min, and slowly pumped back with a syringe, and this process was repeated three times; and BLAF was collected, and centrifuged for 15 min at 4° C. and 1600 rpm/min.
# In strict accordance with the operating instructions of an enzyme-linked immunosorbent assay kit (ELISA), the contents of TNF-α, IL-1β, IL-6 and IL-18 in the supernatant of mouse lung tissue homogenate and the BLAF supernatant were detected.
# [6] = test system: COVID-19 Delta virus-infected mice; assay: IL-1β and MCP-1 expression (RT-qPCR) in lung homogenates of COVID-19 Delta virus-infected mice; format: in vivo, hACE2 transgenic C57BL/6 mice; conditions: mRNA, blank group 1.00; 5 mg/kg gavage; Day 5 of infection
# [7] = 10 mg/kg gavage 30 min before xylene, 4 h after xylene
compound,measurement,setting,value
"CCC(C)(C)C(=O)O[C@H]1C[C@@H](C)C=C2C=C[C@H](C)[C@H](CC[C@@H]3C[C@@H](O)CC(=O)O3)[C@H]21 [Simvastatin, reference compound]",Epithelial cell necrosis Mild,[1],7
same,Epithelial cell necrosis Moderate,[1],3
same,Epithelial cell necrosis Severe,[1],0
same,Interstitial inflammatory cell infiltration Mild,[1],6
same,Interstitial inflammatory cell infiltration Moderate,[1],4
same,Interstitial inflammatory cell infiltration Severe,[1],0
same,IL-8 in serum,[2],22.65 ± 11.56
same,TNF-α in serum,[2],11.71 ± 13.27
"COc1ccc2c(c1)c(CC(=O)O)c(C)n2C(=O)c1ccc(Cl)cc1 [Indomethacin, reference compound]",Ear mass difference,[3]; [7],10.87 ± 0.53 mg
same,Swelling degree,[3]; [7],6.48 ± 1.89 (mg) (%)
same,inhibition at 10 mg/kg,"[3]; Mus musculus, po, ear swelling, 10 mg/kg gavage, read-out: Inhibition rate",40.3%
"C[C@@H]1C[C@H]2[C@@H]3CCC4=CC(=O)C=C[C@]4(C)[C@@]3(F)[C@@H](O)C[C@]2(C)[C@@]1(O)C(=O)CO [Dexamethasone, reference compound]",Interstitial pneumonia Mild,[4],3
same,Interstitial pneumonia Moderate,[4],1
same,Interstitial pneumonia Severe,[4],0
same,Pulmonary hemorrhage Mild,[4],3
same,Pulmonary hemorrhage Moderate,[4],1
same,Pulmonary hemorrhage Severe,[4],0
same,IL-1β in alveolar lavage fluid,[5],58.56 ± 16.24 ng/L
same,IL-1β in lung tissue,[5],48.76 ± 12.76 ng/L
same,IL-6 in alveolar lavage fluid,[5],36.89 ± 6.16 ng/L
same,IL-6 in lung tissue,[5],49.73 ± 16.08 ng/L
same,IL-18 in alveolar lavage fluid,[5],56.38 ± 9.40 ng/L
same,IL-18 in lung tissue,[5],49.06 ± 15.41 ng/L
same,TNF-α in alveolar lavage fluid,[5],222.58 ± 60.91 ng/L
same,TNF-α in lung tissue,[5],58.64 ± 10.65 ng/L
same,IL-1β expression level in lung homogenate,[6],9.26 ± 10.27
same,MCP-1 expression level in lung homogenate,[6],6.27 ± 8.20
